Experimental data published in ChEMBL document CHEMBL1133821, “Synthesis and antiinflammatory, analgesic activity of 3,3'-(1,2-ethanediyl)-bis[2-aryl-4-thiazolidinone] chiral compounds. Part 10” (Bioorg Med Chem Lett, 2001).

Key:
[1] = system: Rattus norvegicus; experiment: Animals with Hyperemia in Carrageenan-induced paw edema test at a dose of 100 mg/kg perorally in rats; format: functional; conditions: route oral
[2] = Peroral dose causing 50% death of the mice population; format: ADME, organism-based; conditions: mouse, in vivo, po
[3] = system: Rattus norvegicus; experiment: Animals with Ulcers in Carrageenan-induced paw edema test at a dose of 100 mg/kg perorally in rats; format: functional; conditions: route oral
[4] = Minimum concentration which causes 50% of the Artemia salina larvae to lose mobility; format: ADME, organism-based; conditions: in vivo
[5] = system: Rattus norvegicus; experiment: Percent Edema variation in Carrageenan-induced paw edema test at a dose of 100 mg/kg perorally in rats after 120 min; format: functional; conditions: route oral
[6] = system: Rattus norvegicus; experiment: Percent Edema variation in Carrageenan-induced paw edema test at a dose of 100 mg/kg perorally in rats after 180 min (p<0.01); format: functional; conditions: route oral
[7] = system: Rattus norvegicus; experiment: Percent Edema variation in Carrageenan-induced paw edema test at a dose of 100 mg/kg perorally in rats after 60 min; format: functional; conditions: route oral
[8] = system: Rattus norvegicus; experiment: Reaction time in Hot plate test at a dose of 100 mg/kg perorally in rats after 180 min (p<0.05); format: functional; conditions: route oral
[9] = system: Rattus norvegicus; experiment: Percent Edema variation in Carrageenan-induced paw edema test at a dose of 100 mg/kg perorally in rats after 180 min (p<0.001); format: functional; conditions: route oral
[10] = system: Rattus norvegicus; experiment: Analgesic activity was determined using acetic acid writing test at a dose of 100 mg/kg perorally in rats. (p<0.01); format: functional; conditions: route oral
[11] = system: Rattus norvegicus; experiment: Number of writhings in Acetic acid Writhing test at a dose of 100 mg/kg perorally in rats; format: functional; conditions: route oral
[12] = system: Rattus norvegicus; experiment: Percent Edema variation in Carrageenan-induced paw edema test at a dose of 100 mg/kg perorally in rats after 120 min (p<0.05); format: functional; conditions: route oral
[13] = system: Rattus norvegicus; experiment: Reaction time in Hot plate test at a dose of 100 mg/kg perorally in rats after 120 min (p<0.01); format: functional; conditions: route oral
[14] = system: Rattus norvegicus; experiment: Reaction time in Hot plate test at a dose of 100 mg/kg perorally in rats after 60 min (p<0.01); format: functional; conditions: route oral
[15] = system: Rattus norvegicus; experiment: Percent Edema variation in Carrageenan-induced paw edema test at a dose of 100 mg/kg perorally in rats after 180 min; format: functional; conditions: route oral
[16] = system: Rattus norvegicus; experiment: Reaction time in Hot plate test at a dose of 100 mg/kg perorally in rats after 60 min (p<0.05); format: functional; conditions: route oral
[17] = system: Rattus norvegicus; experiment: Reaction time in Hot plate test at a dose of 100 mg/kg perorally in rats after 120 min (p<0.05); format: functional; conditions: route oral
[18] = system: Rattus norvegicus; experiment: Analgesic activity was determined using acetic acid writing test at a dose of 100 mg/kg perorally in rats.(p<0.05); format: functional; conditions: route oral
[19] = system: Rattus norvegicus; experiment: Reaction time in Hot plate test at a dose of 100 mg/kg perorally in rats after 60 min; format: functional; conditions: route oral
[20] = system: Rattus norvegicus; experiment: Reaction time in Hot plate test at a dose of 100 mg/kg perorally in rats after 180 min; format: functional; conditions: route oral
[21] = system: Rattus norvegicus; experiment: Analgesic activity was determined using acetic acid writing test at a dose of 100 mg/kg perorally in rats.; format: functional; conditions: route oral
[22] = system: Rattus norvegicus; experiment: Percent Edema variation in Carrageenan-induced paw edema test at a dose of 100 mg/kg perorally in rats after 60 min (p<0.01); format: functional; conditions: route oral
[23] = system: Rattus norvegicus; experiment: Reaction time in Hot plate test at a dose of 100 mg/kg perorally in rats after 120 min; format: functional; conditions: route oral
[24] = system: Rattus norvegicus; experiment: Analgesic activity was determined using acetic acid writing test at a dose of 5 mg/kg perorally in rats. (p<0.01); format: functional; conditions: route oral
[25] = system: Rattus norvegicus; experiment: Percent Edema variation in Carrageenan-induced paw edema test at a dose of 5 mg/kg perorally in rats after 60 min; format: functional; conditions: route oral
[26] = system: Rattus norvegicus; experiment: Percent Edema variation in Carrageenan-induced paw edema test at a dose of 5 mg/kg perorally in rats after 120 min; format: functional; conditions: route oral
[27] = system: Rattus norvegicus; experiment: Reaction time in Hot plate test at a dose of 5 mg/kg perorally in rats after 180 min (p<0.01); format: functional; conditions: route oral
[28] = system: Rattus norvegicus; experiment: Reaction time in Hot plate test at a dose of 5 mg/kg perorally in rats after 120 min (p<0.01); format: functional; conditions: route oral
[29] = system: Rattus norvegicus; experiment: Animals with Hyperemia in Carrageenan-induced paw edema test at a dose of 5 mg/kg perorally in rats; format: functional; conditions: route oral
[30] = system: Rattus norvegicus; experiment: Number of writhings in Acetic acid Writhing test at a dose of 5 mg/kg perorally in rats; format: functional; conditions: route oral
[31] = system: Rattus norvegicus; experiment: Reaction time in Hot plate test at a dose of 5 mg/kg perorally in rats after 60 min (p<0.01); format: functional; conditions: route oral
[32] = system: Rattus norvegicus; experiment: Animals with Ulcers in Carrageenan-induced paw edema test at a dose of 5 mg/kg perorally in rats; format: functional; conditions: route oral
[33] = system: Rattus norvegicus; experiment: Percent Edema variation in Carrageenan-induced paw edema test at a dose of 5 mg/kg perorally in rats after 180 min (p<0.01); format: functional; conditions: route oral

| Structure (SMILES) | Animals [1] | LD50 [2] | Animals [3] | LC50 [4] | Edema variation [5] | Edema variation [7] | No. of writhings [11] | Edema variation [15] | also measured |
| --- | --- | --- | --- | --- | --- | --- | --- | --- | --- |
| COc1ccc(OC)c([C@H]2SCC(=O)N2CCN2C(=O)CS[C@H]2c2cc(OC)ccc2OC)c1 | 40% | > 1000 mg/kg | 0% | > 1000 µg/mL | -13.5% | -12.48% |  |  | Edema variation [6]: -39.06% |
| COc1ccc(C2SCC(=O)N2CCN2C(=O)CSC2c2ccc(OC)c(OC)c2)cc1OC (stereo not drawn) | 20% | > 1000 mg/kg | 0% | > 1000 µg/mL |  | -2.13% | 9.6 |  | Reaction time [8]: 16.8 s; Edema variation [9]: -76.62%; inhibition in vivo at 100 mg/kg [10]: 53%; Edema variation [12]: -30.13%; Reaction time [13]: 26.7 s; Reaction time [14]: 30.4 s |
| COc1ccc(OC)c(C2SCC(=O)N2CCN2C(=O)CSC2c2cc(OC)ccc2OC)c1 (stereo not drawn) | 40% | > 1000 mg/kg | 0% | > 1000 µg/mL | -24.62% | 33.55% |  | -70.22% |  |
| O=C1CSC(c2ccc(Cl)c(Cl)c2)N1CCN1C(=O)CSC1c1ccc(Cl)c(Cl)c1 (stereo not drawn) | 40% | > 1000 mg/kg | 0% | > 1000 µg/mL |  | 14.04% | 15.2 | -27.48% | Reaction time [8]: 19.8 s; Reaction time [16]: 20 s; Reaction time [17]: 18.4 s; inhibition in vivo at 100 mg/kg [18]: 24%; Edema variation [12]: -31.41% |
| COc1ccc(C2SCC(=O)N2CCN2C(=O)CSC2c2ccc(OC)c(F)c2)cc1F (stereo not drawn) | 20% | > 1000 mg/kg | 0% | > 1000 µg/mL | -23.83% | 8.6% | 16.4 |  | Reaction time [19]: 13.4 s; Reaction time [17]: 16.8 s; Reaction time [20]: 13.5 s; inhibition in vivo at 100 mg/kg [21]: 20%; Edema variation [6]: -38.94% |
| COc1cccc(C2SCC(=O)N2CCN2C(=O)CSC2c2cccc(OC)c2)c1 (stereo not drawn) | 20% | > 1000 mg/kg | 0% | > 1000 µg/mL | -26.3% |  | 19.5 | -18.31% | Reaction time [19]: 13.4 s; Edema variation [22]: -34.4%; Reaction time [20]: 12.9 s; inhibition in vivo at 100 mg/kg [21]: 4%; Reaction time [23]: 13 s |
| COc1ccc2c(c1)c(CC(=O)O)c(C)n2C(=O)c1ccc(Cl)cc1 [INDOMETHACIN] |  | 15 mg/kg |  |  |  |  |  |  | inhibition in vivo at 5 mg/kg [24]: 80%; Edema variation [25]: -15.4%; Edema variation [26]: -10.85%; Reaction time [27]: 28 s; Reaction time [28]: 27.1 s; Animals [29]: 100%; No. of writhings [30]: 4; Reaction time [31]: 26.1 s; Animals [32]: 80%; Edema variation [33]: -50.86% |
